Measured values from US20260263357A1, “PHASE SHIFTING INTRAVITREAL TAMPONADE” (Avant Sciences, Inc., priority 2023, published 2026).
Where two headings read alike, the source gives them in different places.

Experiments:
[1] = cited from earlier work
[2] = cited from earlier work; remark: listed apart in the source
[3] = Experimental ultrasound absorbance (amplitude attenuation coefficient); assay type: physicochemical
Excerpt: In some embodiments, the compounds of Structure 1 are capable of absorbing ultrasonic wave energy. The capacity of a given chemical to convert applied ultrasound from vibrational energy into heat is termed its ultrasonic absorbance, which itself varies depending upon the initial temperature and the frequency of the applied ultrasound. Additionally, the native vitreous within biological tissues approximates that of water, which itself has an ultrasonic absorption profile; thus, there is a baseline transmission of acoustic energy through ocular tissues, and this characteristic is routinely leveraged when it comes to various forms of imaging and therapy (Southern, Australas J Ultrasound Med. 2009 February; 12 (1): 32-37). In some embodiments, a compound that can preferentially absorb ultrasound more readily than that of water has the capacity to disproportionately absorb applied ultrasonic energy versus that of vitreous within the vitreous cavity. As such absorption would lead to local increase in temperature, thus facilitate the phase shift to a gaseous state.
With reference to Table 3, a compound with a larger amplitude attenuation coefficient absorbs ultrasound more than a compound that has a lower amplitude attenuation coefficient. It is clear that each of the compounds of Structure 1 (as shown in Table 3) is orders of magnitude more likely to absorb ultrasonic energy than water/vitreous. […] Indeed, it is notable that water, the least absorptive compound shown, is not only clearly symmetric on both a rotational axis and the mirror plane, but also has some of the strongest hydrogen bond forces in all of chemistry, allowing it to “pack itself together” much more readily than the other compounds on the list.

[4] = Table 5; cited from earlier work
[5] = tested on: New Zealand white rabbits; assay: Scotopic a-wave, b-wave and photopic b-wave ERGs after intravitreal injection; assay type: in vivo, rabbit; conditions: baseline and 2 months
Excerpt: (§1) Additionally, to address concerns about biological toxicity of these compounds, intraocular pressure measurements and both scotopic a-wave, b-wave, and photopic b-wave ERGs were done on all 6 rabbits in the study, without any statistically notable adverse signals (FIG. 2-5).

[6] = tested on: New Zealand white rabbits; assay: Intraocular pressure measurements after intravitreal injection; assay type: in vivo, rabbit
Excerpt: as §1
Additionally, to address concerns about biological toxicity of these compounds, intraocular pressure measurements were done on all 4 rabbits in the study, without any statistically notable adverse signals.

[7] = tested on: New Zealand white rabbits; assay: Fundus imaging of tamponade bubble after injection into rabbit vitreous cavity (phase shift and removal); assay type: in vivo; conditions: 8 microliters injected into rabbit vitreous cavity
Procedure: The biological safety of a compound of Structure 1 is tested within an animal model. In particular, 2,2,2-Trifluoroethyl 1,1,2,2-tetrafluoroethyl ether was tested within a New Zealand white rabbits, an animal model in line with previous retinal tamponade studies (Santos et al., Retina, 33 (1): p 120-127 (1991)).
(§2) FIG. 1A includes a set of control retinal fundus images (near-infrared images IR and corresponding color images MC) for which balanced salt solution BSS (effectively water) was injected into a rabbit vitreous cavity. […] In other words, 2,2,2-Trifluoroethyl 1,1,2,2-tetrafluoroethyl ether was empirically determined to successfully phase shift under biological conditions at around 1 week post placement, and then subsequently carried out of the body over the next 2 months. […]
as §2, with “6A” for “1A”, “1,1,2,3,3,3-Hexafluoropropyl difluoromethyl” for “2,2,2-Trifluoroethyl 1,1,2,2-tetrafluoroethyl”, “1-3 days” for “1 week”, “subsequently fully” for “subsequently”, “by Day 8.” for “over the next 2 months.”

[8] = Table 2, selected fluorinated ethers
[9] = Table 1, selected fluorinated alkanes
[10] = 6 rabbits, up to about two months after injection, FIG. 2
[11] = 4 rabbits, up to about 1 month after injection, FIG. 7

Row | Structure (SMILES) | Boiling Point [1, 8] [°C] | Flammable? [2, 8] | Boiling Point ([1]; Table 5) [°C] | Density [4] [g/mL] | Flammable? [2, 9] | other results
1 | COC(F)(F)C(F)F [tetrafluoroethyl methyl ether] | 37 | YES |  |  |  | 
2 | COC(F)(F)C(F)(F)C(F)(F)F [Heptafluoropropyl methyl ether] | 34 | No |  |  |  | 
3 | FC(OC(F)(F)C(F)(F)C(F)(F)F)C(F)(F)F (centres unmarked) [Heptafluoropropyl 1,2,2,2-tetrafluoroethyl ether] | 40 | No | 40 | 1.538 |  | Amplitude Attenuation Coefficient [3]: 3.58 db/cm-MHz
4 | FC(F)C(F)(F)C(F)F [1,1,2,2,3,3-Hexafluoropropane] |  |  |  |  | No | Boiling Point [1, 9]: 5 °C
5 | FCCC(F)F [1,1,3-Trifluoropropane] |  |  |  |  | YES | 
6 | FC(F)C(F)(F)OCC(F)(F)F [2,2,2-Trifluoroethyl 1,1,2,2-tetrafluoroethyl ether] | 56 | No | 56.7 | 1.487 |  | Scotopic a-wave ERG amplitude (rod and cone cells, dark-adapted) vs control (Balanced Salt Solution) ([5]; FIG. 3): no significant difference; Scotopic b-wave ERG amplitude (bipolar cells, dark-adapted) vs control (Balanced Salt Solution) ([5]; FIG. 4): no significant difference; Photopic b-wave ERG amplitude (bipolar cells, light-adapted) vs control (Balanced Salt Solution) ([5]; FIG. 5): no significant difference; Amplitude Attenuation Coefficient [3]: 2.65 db/cm-MHz; Intraocular pressure compared to control (Balanced Salt Solution) [6, 10]: not significantly different; Intraocular pressure relative to normal physiologic range [6, 10]: nor were their intraocular pressures outside of normal physiologic range throughout the study; Time over which agent is carried out of the body after phase shift ([7]; fundus images to D56): ~2 months
7 | FC(F)C(F)(F)COCC(F)(F)C(F)F [1,1,2,2-Tetrafluoro-3-(2,2,3,3-tetrafluoropropoxy)propane, reference compound] |  |  | 35 | 1.627 |  | 
8 | FCOCF [Bis(fluoromethyl) ether] | 34 | YES |  |  |  | 
9 | FC(F)(F)C(F)(F)C(F)(F)F [Perfluoropropane] |  |  |  |  | No | 
10 | FCC(F)(F)C(F)F [1,1,2,2,3-Pentafluropropane] |  |  |  |  | YES | Boiling Point [1, 9]: 26 °C
11 | FC(F)OCC(F)(F)C(F)(F)F [Difluoromethyl 2,2,3,3,3-pentafluoropropyl ether] | 46 | No | 46 | 1.46 |  | Amplitude Attenuation Coefficient [3]: 0.57 db/cm-MHz
12 | CC(F)(F)OCC(F)(F)F [1,1-Difluoroethyl 2,2,2-trifluoroethyl ether] |  | YES |  |  |  | 
13 | O [Water, reference compound] |  |  |  |  |  | Amplitude Attenuation Coefficient [3]: 0.002 db/cm-MHz
14 | COC(F)C(F)(F)F (centres unmarked) [1,2,2,2-Tetrafluoroethyl methyl ether] |  | YES |  |  |  | 
15 | FCCC(F)(F)F [1,1,1,3-Tetrafluoropropane] |  |  |  |  | YES | 
16 | FC(F)OC(F)(F)C(F)C(F)(F)F (centres unmarked) [1,1,2,3,3,3-Hexafluoropropyl difluoromethyl ether] | 47 | No | 47 | 1.5 |  | Amplitude Attenuation Coefficient [3]: 3.35 db/cm-MHz; Intraocular pressure compared to control (Balanced Salt Solution) [6, 11]: not significantly different; Intraocular pressure relative to normal physiologic range [6, 11]: nor were their intraocular pressures outside of normal physiologic range throughout the study; Day by which agent is fully carried out of the body ([7]; fundus images to D30): ≤ 8 days
17 | FC(F)C(F)(F)C(F)(F)F [1,1,1,2,2,3,3-Heptafluoropropane] |  |  |  |  | No | Boiling Point [1, 9]: −16 °C
18 | CCOC(F)(F)C(F)(F)F [Ethyl pentafluoroethyl ether] | 30 | YES |  |  |  | 
19 | FC(C(F)(F)F)C(F)(F)OCC(F)(F)C(F)(F)C(F)(F)F (centres unmarked) [1,1,1,2,2,3,3-Heptafluoro-4-(1,1,2,3,3,3-hexafluoropropoxy)butane, reference compound] |  |  | 102 | 1.63 |  | 
